Reference: patent publication US9550796B2, “Pyrrolopyrrolone derivatives and their use as BET inhibitors” (NOVARTIS AG, priority 2013, dated 2017)

Columns and labels:
BRD3 = BRD3 (Homo sapiens (Human), UniProt Q15059); experiment: TR-FRET in-vitro binding assay for BRD3; details: 45 nM His-Brd3(20-477), acetyl-histone H4 (AcK 5, 8, 12, 16) peptide
Procedure: (§1) TR-FRET In-Vitro Binding Assays for BRD2, BRD3, and BRD4: All assays were performed in 384-well microtiter plates. […] Liquid handling and incubation steps were done on an Innovadyne Nanodrop Express equipped with a robotic arm (Thermo CatX, Perkin Elmer/Caliper Twister II) and an incubator (Liconic STX40, Thermo Cytomat 2C450). The assay plates were prepared by addition of 50 nl per well of compound solution in 90% DMSO HummingBird nanodispenser (Zinsser Analytic). […] Reactions were incubated at 30° C. for 35 minutes. […] After 35 minutes incubation at 30° C., plates were measured in a Perkin Elmer EnVision multilabel reader. […] The stock solutions were stored at […] if not used immediately. For the test procedure the vials were defrosted and identified by a scanner whereby a working sheet was generated that guided the subsequent working steps. Compound dilutions were made in 96 well plates. This format enabled the assay of maximally […] at 8 concentrations (single points) including 4 reference compounds, if desired (known BET inhibitors from the prior art, for this and other assays of the type disclosed herein). The dilution protocol included the production of “pre-dilution plates”, “master plates” and “assay plates”. Polypropylene 96-well plates were used as pre-dilution plates. […] All dilution steps were done on a HamiltonSTAR robot. […] Identical “assay plates” were then prepared by pipetting 50 nL each of compound dilutions of the “master plates” into 384-well “assay plates” by means of a HummingBird 384-channel dispenser. These plates were used directly for the assay which was performed in a total volume of 13.55 μL.

K-562 = experiment: Cell growth inhibition assay (CellTiter-Glo), K-562; assay type: cell-based, human; details: K-562 cells, 4 days; for GI50: Homo sapiens, K562, 96 h, half-maximal growth inhibition; for K-562 TGI: total growth inhibition
Procedure: (§2) Cell Growth Inhibition Assay
(§3) The human leukemia cell lines MV-4-11, THP-1 and K-562 were employed to characterize the effect of BET inhibitors on cellular proliferation and viability. Cells were obtained from the American Type Culture Collection (ATCC) and cultured at 37° C. in a humidified 5% CO2 incubator in the following media: MV-4-11: DMEM high glucose (Animed #1-26F01-I), 10% FCS (Animed #2-01F26-I), 4 mM L-Glutamine (Animed #5-10K50), 1 mM Sodium Pyruvate (Animed # G03625P), 1× Penicillin-Streptomycin (Animed # F12478P); K-562: Iscove's MEM (Animed #1-28F16-I), 10% FCS (Animed #2-01F26-I), 4 mM L-Glutamine (Animed #5-10K50), 1× Penicillin-Streptomycin (Animed # F12478P); THP-1: RPMI-1640 (Animed #1-41F01-I), 10% FCS (Animed #2-01F26-I), 2 mM L-Glutamine (Animed #5-10K50), 10 mM HEPES (Animed #5-31F100), 1 mM Sodium Pyruvate (Animed # G03625P), 1× Penicillin-Streptomycin (Animed # F12478P). The AML lines MV-4-11 and THP-1 are very sensitive to BET inhibitors and show massive cell death upon BET inhibition (Zuber et al., Nature, 478 (2011), 524-8). Compound-mediated suppression of cell proliferation/viability was assessed by quantification of cellular ATP levels using the CellTiter-Glo (CTG) reagent (Promega). Briefly, cells were seeded in 20 μl fresh medium into 384-well plates, followed by addition of 5 μL medium containing compound dilutions at 5-fold their final intended concentration. Dose-response effects were assessed by 3-fold serial dilutions of the test compound, starting at 10 μM. Following incubation of the cells for 4 days at 37° C. and 5% CO2, the effect of inhibitors on cell viability was quantified following addition of 20 μl CTG and luminescence quantification (integration time: 100 ms) as per vendor manual, using a correspondingly equipped Tecan M200 multi-mode platereader (TECAN, Switzerland). For data analysis, the assay background value determined in wells containing medium, but no cells, was subtracted from all data points. To enable differentiation of cytotoxic from cytostatic compounds, the number of viable cells is assessed relative to that observed at the time of compound addition using a separate cell plate (day 0). The effect of a particular test compound concentration on cell proliferation/viability is expressed as percentage of the background- and day 0-corrected luminescence reading obtained for cells treated with vehicle only (DMSO, 0.1% final concentration), which is set as 100%, whereas that luminescence reading for wells containing medium is set as −100%. Compound concentrations leading to half-maximal (IC50) and total growth inhibition (TGI) were determined using standard four parameter curve fitting.

CREBBP = CREBBP (Homo sapiens (Human), UniProt Q92793); experiment: AlphaScreen in-vitro binding assay for CREBBP; details: 324 nM His-CREBBP (1081-1197), acetyl-histone H4 (AcK 5, 8, 12) peptide
Sequence of CREBBP (Q92793 1081-1197): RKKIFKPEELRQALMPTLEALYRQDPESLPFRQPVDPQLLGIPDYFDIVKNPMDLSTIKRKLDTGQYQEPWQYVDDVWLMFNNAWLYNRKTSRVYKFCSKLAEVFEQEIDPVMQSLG
Procedure: AlphaScreen In-Vitro Binding Assay for CREBBP
In order to assess bromodomain selectivity, we set up a binding assay using the bromodomain encoded by the CREBBP gene. […] The assay was started by stepwise addition of 4.5 μL per well of bromo domain protein (50 mM HEPES, pH 7.5, 0.005% Tween20, 0.02% BSA, 150 mM NaCl, 324 nM His-CREBBP (1081-1197) (custom production at Viva Biotech Ltd.)) and 4.5 μL per well of peptide solution (50 mM HEPES, pH 7.5, 0.005% Tween20, 0.02% BSA, 150 mM NaCl, 120 nM acetyl-histone H4 (AcK 5, 8, 12) (Biosyntan GmbH)). Reactions were incubated at 30° C. for 35 minutes. Subsequently 4.5 μL per well detection mix (50 mM HEPES, pH 7.5, 0.005% Tween20, 0.02% BSA, 150 mM NaCl, 45 μg/ml Ni-chelate acceptor beads, 45 μg/mL streptavidin-donor beads) (Perkin Elmer)) were added. After 60 minutes incubation at room temperature, plates were measured in a Perkin Elmer EnVision multilabel reader. IC50 values were determined from percent inhibition values at different compound concentrations by non-linear regression analysis.
Test compounds were dissolved in DMSO (10 mM) and transferred into 1.4 mL flat bottom or V-shaped Matrix tubes carrying a unique 2D matrix. The stock solutions were stored at […] if not used immediately. For the test procedure the vials were defrosted and identified by a scanner whereby a working sheet was generated that guided the subsequent working steps. Compound dilutions were made in 96 well plates. This format enabled the assay of maximally […] at 8 concentrations (single points) including 4 reference compounds, if desired (known BET inhibitors from the prior art, for this and other assays of the type disclosed herein). The dilution protocol included the production of “pre-dilution plates”, “master plates” and “assay plates”.
Polypropylene 96-well plates were used as pre-dilution plates. A total of 4 pre-dilution plates were prepared including 10 test compounds each on the plate positions A1-A10, one standard compound at A11 and one DMSO control at […]. All dilution steps were done on a HamiltonSTAR robot.
30 μL of individual compound dilutions including standard compound and controls of the 4 “pre-dilution plates” were transferred into a 384-well “master plate” including the following concentrations 10000, […], 1000, 300, 100, 30, 10 and 3 μM, respectively in 90% of DMSO.
Identical “assay plates” were then prepared by pipetting 50 nL each of compound dilutions of the “master plates” into 384-well “assay plates” by means of a HummingBird 384-channel dispenser. These plates were used directly for the assay which was performed in a total volume of 13.55 μL.

BRD4 = BRD4 (Homo sapiens (Human), UniProt O60885); experiment: TR-FRET in-vitro binding assay for BRD4; details: 45 nM His-Brd4(44-477), acetyl-histone H4 (AcK 5, 8, 12, 16) peptide
Procedure: as §1

MV-4-11 = experiment: Cell growth inhibition assay (CellTiter-Glo), MV-4-11; assay type: cell-based, human; details: MV-4-11 cells, 4 days; for GI50: Homo sapiens, MV4-11, 96 h, half-maximal growth inhibition; for MV-4-11 TGI: total growth inhibition
Procedure: as §2, §3

THP-1 = experiment: Cell growth inhibition assay (CellTiter-Glo), THP-1; assay type: cell-based, human; details: THP-1 cells, 4 days; for GI50: Homo sapiens, 96 h, half-maximal growth inhibition; for THP-1 TGI: total growth inhibition
Procedure: as §2, §3

Sequence of BRD3 (Q15059 20-477): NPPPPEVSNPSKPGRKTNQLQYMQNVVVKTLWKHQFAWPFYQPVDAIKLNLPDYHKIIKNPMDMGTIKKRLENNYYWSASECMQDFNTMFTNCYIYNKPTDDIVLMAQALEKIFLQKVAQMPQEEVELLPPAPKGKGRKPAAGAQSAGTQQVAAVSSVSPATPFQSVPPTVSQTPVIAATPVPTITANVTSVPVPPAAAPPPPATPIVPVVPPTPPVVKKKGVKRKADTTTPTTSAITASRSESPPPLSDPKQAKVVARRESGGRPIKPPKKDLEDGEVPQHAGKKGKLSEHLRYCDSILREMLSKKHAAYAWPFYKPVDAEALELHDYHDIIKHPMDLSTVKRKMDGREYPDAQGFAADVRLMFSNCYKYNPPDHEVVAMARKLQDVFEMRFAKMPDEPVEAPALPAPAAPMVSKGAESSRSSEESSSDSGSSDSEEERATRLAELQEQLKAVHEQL

IC50 (BRD3) [nM]	GI50 (K-562) [nM]	IC50 (CREBBP) [nM]	IC50 (BRD4) [nM]	GI50 (MV-4-11) [nM]	GI50 (THP-1) [nM]	Compound	K-562 TGI (K-562) [nM]	MV-4-11 TGI (MV-4-11) [nM]	THP-1 TGI (THP-1) [nM]
46	203	27600	45	39.5	37.7	Cc1cn(CCN(C)C)c2c1C(=O)N(c1cc(C)c3nnc(C)n3c1)C2c1ccc(Cl)cc1 (stereo not drawn) [Example 128, 6-(4-chlorophenyl)-5-(3,8-dimethyl-[1,2,4]triazolo[4,3-a]pyridin-6-yl)-1-(2-(dimethylamino)ethyl)-3-methyl-5,6-dihydropyrrolo[3,4-b]pyrrol-4(1H)-one]	>10000	62.9	105.1
15	72	1600	13	13.6	12.9	CC(=O)Nc1cn(C)c2c1C(=O)N(c1cc(C)c3nnn(C)c3c1)C2c1ccc(Cl)cc1 (stereo not drawn) [Example 113, N-(6-(4-chlorophenyl)-5-(1,4-dimethyl-1H-benzo[d][1,2,3]triazol-6-yl)-1-methyl-4-oxo-1,4,5,6-tetrahydropyrrolo[3,4-b]pyrrol-3-yl)acetamide]	>10000	27.25	30.35
38	499	1300	34	26.8	27.1	CNC(=O)Nc1cn(C)c2c1C(=O)N(c1cc(C)c3nnn(C)c3c1)C2c1ccc(Cl)cc1 (stereo not drawn) [Example 114, 1-(6-(4-chlorophenyl)-5-(1,4-dimethyl-1H-benzo[d][1,2,3]triazol-6-yl)-1-methyl-4-oxo-1,4,5,6-tetrahydropyrrolo[3,4-b]pyrrol-3-yl)-3-methylurea]	>10000	66	105.2
22	3830	32300	21	374	956	Cc1cc(N2C(=O)c3c(C4CN(C)C4)cn(C)c3C2c2ccc(Cl)cc2)cn2c(C)nnc12 (stereo not drawn) [Example 118, 6-(4-chlorophenyl)-5-(3,8-dimethyl-[1,2,4]triazolo[4,3-a]pyridin-6-yl)-1-methyl-3-(1-methylazetidin-3-yl)-5,6-dihydropyrrolo[3,4-b]pyrrol-4(1H)-one]	>10000	591.5	1810
14	41.6	1500	11	6.58	7.56	CCOC(=O)n1c(-c2cccnc2OC)c(C)c2c1C(c1ccc(Cl)cc1)N(c1cc(C)c3nnc(C)n3c1)C2=O (stereo not drawn) [Example 124, Ethyl 6-(4-chlorophenyl)-5-(3,8-dimethyl-[1,2,4]triazolo[4,3-a]pyridin-6-yl)-2-(2-methoxypyridin-3-yl)-3-methyl-4-oxo-5,6-dihydropyrrolo[3,4-b]pyrrole-1(4H)-carboxylate]	>10000	13.2	15.8
20	114	> 37000	23	19.4	17.3	CC(=O)Nc1cn(C)c2c1C(=O)N(c1cc(C)c3nnc(C(F)F)n3n1)C2c1ccc(Cl)cc1 (stereo not drawn) [Example 109, N-(6-(4-chlorophenyl)-5-(3-(difluoromethyl)-8-methyl-[1,2,4]triazolo[4,3-b]pyridazin-6-yl)-1-methyl-4-oxo-1,4,5,6-tetrahydropyrrolo[3,4-b]pyrrol-3-yl)acetamide]	>10000	40.75	38.6
21	21.4	470	14	6.08	6.4	COc1ncccc1-c1cc2c(n1C)C(c1ccc(Cl)cc1)N(c1cc(C)c3nnc(C)n3c1)C2=O (stereo in doubt) [Example 135, (R)-6-(4-chlorophenyl)-5-(3,8-dimethyl-[1,2,4]triazolo[4,3-a]pyridin-6-yl)-2-(2-methoxypyridin-3-yl)-1-methyl-5,6-dihydropyrrolo[3,4-b]pyrrol-4(1H)-one]	>10000	12.44	14.95
